Results from ChEMBL document CHEMBL3885881, “DrugMatrix”.

Species: Rattus norvegicus
Assay: DrugMatrix - Regimen: Daily Repeat
Assay type: toxicity, organism-based, Sprague-Dawley
Parameters: regimen Daily Repeat, gender Male, age 6-8 weeks
Conditions: in vivo, po, route oral GAVAGE, vehicle 100 % WATER
[1] = 70 mg/kg, 72 h, tissue Blood, dose level Low, time 3 day
[2] = 70 mg/kg, 72 h, tissue Plasma, dose level Low, time 3 day
[3] = 70 mg/kg, 120 h, tissue Blood, dose level Low, time 5 day
[4] = 70 mg/kg, 120 h, tissue Plasma, dose level Low, time 5 day
[5] = 700 mg/kg, 72 h, tissue Blood, dose level High, time 3 day
[6] = 700 mg/kg, 72 h, tissue Plasma, dose level High, time 3 day
[7] = 700 mg/kg, 120 h, tissue Blood, dose level High, time 5 day
[8] = 700 mg/kg, 120 h, tissue Plasma, dose level High, time 5 day

MANGANESE CHLORIDE ANHYDROUS
ABSOLUTE BASOPHIL [1]: 0 CELLS/uL | ABSOLUTE EOSINOPHIL [1]: 0 CELLS/uL | ABSOLUTE LYMPHOCYTE [1]: 8843.67 CELLS/uL | ABSOLUTE MONOCYTE [1]: 103.33 CELLS/uL | ABSOLUTE SEGMENTED NEUTROPHIL [1]: 819.67 CELLS/uL | BASOPHIL [1]: 0% | EOSINOPHIL [1]: 0% | ERYTHROCYTE COUNT [1]: 5.19 x10E6/uL | HEMATOCRIT [1]: 32.17% | HEMOGLOBIN [1]: 12.2 G/DL | LEUKOCYTE COUNT [1]: 9.77 x10E3/uL | LYMPHOCYTE [1]: 90% | MEAN CORPUSCULAR HEMOGLOBIN [1]: 23.5 pg | MEAN CORPUSCULAR HEMOGLOBIN CONCENTRATION [1]: 37.93 G/DL | MEAN CORPUSCULAR VOLUME [1]: 61.97 fL | MONOCYTE [1]: 0.67% | NUCLEATED RED BLOOD CELLS [1]: 0 /100WBC | PLATELET COUNT [1]: 1240.67 x10E3/uL | ALANINE AMINOTRANSFERASE [2]: 53.33 u/L | ALKALINE PHOSPHATASE [2]: 482 u/L | ASPARTATE AMINOTRANSFERASE [2]: 91.67 u/L | BLOOD UREA NITROGEN [2]: 13.33 mg/dL | CARBON DIOXIDE [2]: 35.33 mmol/L | CHLORIDE [2]: 99 MEQ/L | CHOLESTEROL [2]: 84 mg/dL | CREATINE PHOSPHOKINASE [2]: 442.33 u/L | CREATININE [2]: 0.22 mg/dL | GLUCOSE [2]: 139.33 mg/dL | LACTATE DEHYDROGENASE [2]: 131 u/L | PHOSPHORUS [2]: 12.07 mg/dL | POTASSIUM [2]: 6.21 MEQ/L | TOTAL BILIRUBIN [2]: 0.17 mg/dL | TOTAL PROTEIN [2]: 6.27 G/DL | URIC ACID [2]: 0.57 mg/dL | ABSOLUTE BASOPHIL [3]: 0 CELLS/uL | ABSOLUTE EOSINOPHIL [3]: 184.33 CELLS/uL | ABSOLUTE MONOCYTE [3]: 189.67 CELLS/uL | ABSOLUTE SEGMENTED NEUTROPHIL [3]: 2003 CELLS/uL | BASOPHIL [3]: 0% | EOSINOPHIL [3]: 1% | ERYTHROCYTE COUNT [3]: 4.88 x10E6/uL | HEMATOCRIT [3]: 30.07% | HEMOGLOBIN [3]: 11.73 G/DL | LEUKOCYTE COUNT [3]: 15.07 x10E3/uL | LYMPHOCYTE [3]: 84% | MEAN CORPUSCULAR HEMOGLOBIN [3]: 24.27 pg | MEAN CORPUSCULAR HEMOGLOBIN CONCENTRATION [3]: 39.03 G/DL | NEUTROPHIL [3]: 13.67% | NUCLEATED RED BLOOD CELLS [3]: 0.33 /100WBC | PLATELET COUNT [3]: 1245 x10E3/uL | ALANINE AMINOTRANSFERASE [4]: 35.67 u/L | ALBUMIN [4]: 3.9 G/DL | ALKALINE PHOSPHATASE [4]: 338 u/L | ASPARTATE AMINOTRANSFERASE [4]: 64.33 u/L | BLOOD UREA NITROGEN [4]: 13.67 mg/dL | CARBON DIOXIDE [4]: 31.67 mmol/L | CHOLESTEROL [4]: 69.33 mg/dL | CREATINE PHOSPHOKINASE [4]: 218 u/L | CREATININE [4]: 0.22 mg/dL | GLUCOSE [4]: 158.33 mg/dL | LACTATE DEHYDROGENASE [4]: 105.67 u/L | PHOSPHORUS [4]: 13.3 mg/dL | POTASSIUM [4]: 6.22 MEQ/L | TOTAL BILIRUBIN [4]: 0.17 mg/dL | TOTAL PROTEIN [4]: 5.83 G/DL | ABSOLUTE BASOPHIL [5]: 0 CELLS/uL | ABSOLUTE EOSINOPHIL [5]: 33.67 CELLS/uL | ABSOLUTE LYMPHOCYTE [5]: 10434.33 CELLS/uL | ABSOLUTE MONOCYTE [5]: 178.67 CELLS/uL | ABSOLUTE SEGMENTED NEUTROPHIL [5]: 1653.33 CELLS/uL | BASOPHIL [5]: 0% | EOSINOPHIL [5]: 0.33% | ERYTHROCYTE COUNT [5]: 4.97 x10E6/uL | HEMATOCRIT [5]: 30.43% | HEMOGLOBIN [5]: 11.8 G/DL | LEUKOCYTE COUNT [5]: 12.3 x10E3/uL | LYMPHOCYTE [5]: 85.67% | MEAN CORPUSCULAR HEMOGLOBIN [5]: 23.77 pg | MEAN CORPUSCULAR HEMOGLOBIN CONCENTRATION [5]: 38.77 G/DL | NEUTROPHIL [5]: 12.67% | NUCLEATED RED BLOOD CELLS [5]: 0 /100WBC | PLATELET COUNT [5]: 1357.33 x10E3/uL | ALANINE AMINOTRANSFERASE [6]: 45 u/L | ALBUMIN [6]: 3.77 G/DL | ALKALINE PHOSPHATASE [6]: 329.67 u/L | ASPARTATE AMINOTRANSFERASE [6]: 86.33 u/L | BLOOD UREA NITROGEN [6]: 13.67 mg/dL | CARBON DIOXIDE [6]: 36.33 mmol/L | CHLORIDE [6]: 99 MEQ/L | CHOLESTEROL [6]: 63.33 mg/dL | CREATINE PHOSPHOKINASE [6]: 347.67 u/L | CREATININE [6]: 0.26 mg/dL | GLUCOSE [6]: 139.67 mg/dL | LACTATE DEHYDROGENASE [6]: 119 u/L | PHOSPHORUS [6]: 11.6 mg/dL | POTASSIUM [6]: 5.86 MEQ/L | SODIUM [6]: 145.53 MEQ/L | TOTAL BILIRUBIN [6]: 0.17 mg/dL | TOTAL PROTEIN [6]: 6.23 G/DL | URIC ACID [6]: 0.47 mg/dL | ABSOLUTE BASOPHIL [7]: 0 CELLS/uL | ABSOLUTE EOSINOPHIL [7]: 0 CELLS/uL | ABSOLUTE LYMPHOCYTE [7]: 14144.67 CELLS/uL | ABSOLUTE MONOCYTE [7]: 257.33 CELLS/uL | ABSOLUTE SEGMENTED NEUTROPHIL [7]: 3531.33 CELLS/uL | BASOPHIL [7]: 0% | EOSINOPHIL [7]: 0% | ERYTHROCYTE COUNT [7]: 5.15 x10E6/uL | HEMATOCRIT [7]: 30.93% | HEMOGLOBIN [7]: 11.9 G/DL | LEUKOCYTE COUNT [7]: 17.93 x10E3/uL | LYMPHOCYTE [7]: 79.67% | MEAN CORPUSCULAR HEMOGLOBIN [7]: 23.1 pg | MEAN CORPUSCULAR VOLUME [7]: 60.03 fL | NEUTROPHIL [7]: 19% | NUCLEATED RED BLOOD CELLS [7]: 0 /100WBC | PLATELET COUNT [7]: 1336.67 x10E3/uL | ALANINE AMINOTRANSFERASE [8]: 40 u/L | ALKALINE PHOSPHATASE [8]: 346.33 u/L | ASPARTATE AMINOTRANSFERASE [8]: 68.67 u/L | BLOOD UREA NITROGEN [8]: 12.67 mg/dL | CARBON DIOXIDE [8]: 33.67 mmol/L | CHOLESTEROL [8]: 76.33 mg/dL | CREATINE PHOSPHOKINASE [8]: 209.67 u/L | CREATININE [8]: 0.31 mg/dL | GLUCOSE [8]: 139.67 mg/dL | LACTATE DEHYDROGENASE [8]: 88.67 u/L | POTASSIUM [8]: 5.7 MEQ/L | TOTAL BILIRUBIN [8]: 0.17 mg/dL | TOTAL PROTEIN [8]: 5.97 G/DL | URIC ACID [8]: 0.4 mg/dL
